In PubChem BioAssay AID624456 (Sanford-Burnham Center for Chemical Genomics, 2012) one finds stability data, which are given here for 26 compounds.

For the series, the system named is compound stability in 1x PBS, percent remaining. The series is described as follows: percent compound remaining in PBS buffer – biochemical, 1x PBS, with and without 50% ACN, set 2, ADME assay (AID 624456).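 Further: percent left after two days of incubation at room temperature.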
The mark [1] stands for this setting: measured here: stability in PBS with 50% ACN.

In turn, `Cc1cc(C)nc(-n2nc(C)c(Sc3ccc(F)cc3)c2N)n1` displayed a stability of 56%. This compound also had a stability under setting [1] of 100%. Take `Brc1ccc2c(c1)CN1CCCC1=N2`: the stability came to 92.9%. Also, under setting [1], the stability is 93.4%. Compound `CN(C)c1oc(-c2ccc(OCc3ccc(Cl)cc3)cc2)nc1C#N` registered a stability of 9.08%. Under setting [1], this compound yielded a stability of 100%. `CCOC(=O)C(C)Oc1cccc2c(=O)n(CC(=O)Nc3ccc4c(c3)OCCO4)ccc12` (stereo unspecified) displayed a stability of 56.1%. Under setting [1], the stability is 94.6%.

`CCCN(CCC)CCNC(=O)C1CCN(Cc2nc(-c3ccc(Cl)cc3)oc2C)CC1` had a stability of 99.4%. The compound also gave a stability under setting [1] of 100%.

For the compound `Cn1cnc([N+](=O)[O-])c1Sc1ncnc2nc[nH]c12`, the stability worked out at 31.9%. Turning to `O=C(COC(=O)C12CC3CC(CC(C3)C1)C2)NCc1ccco1`, the stability was determined as 49.6%. The stability under setting [1] amounted to 88.2%. As to `Cc1ccc(S(=O)(=O)C(c2ccccc2)c2c(C)noc2C)cc1` (stereo unspecified), the stability is 83.8%. Under setting [1], this compound yielded a stability of 99.3%. On to `CC1CCCN(C(C(=O)Nc2ccc3c(c2)OCCO3)c2ccccc2)C1` (stereo unspecified), for which the stability was determined as 100%. The compound further displayed a stability under setting [1] of 100%. On to `O=C1CCCC2=C1C1(CCCC1)N=C(Nc1nc3ccccc3o1)N2`, for which the stability came out at 21.9%. Moreover, under setting [1], the stability amounted to 90.2%.

As for `c1ccc(CC2CCN(c3ncnc4sccc34)CC2)cc1`, the stability was found to be 6.42%. Moreover, the stability under setting [1] was found to be 93.2%. With `O=[N+]([O-])c1ccc(CN2CCOCCOCCN(Cc3ccc([N+](=O)[O-])cc3)CCOCC2)cc1`, the stability was 96.1%. Besides, the stability under setting [1] was 100%. Take `CCCN1CNc2c(c(=O)[nH]c(=S)n2CCc2ccc(OC)c(OC)c2)C1`: the stability was 78.5%. This compound returned a stability under setting [1] of 100%. The compound `Cc1cc2c(s1)c1cnn(Cc3ccccc3F)c(=O)c1n2C` registered a stability of 20.4%. The compound also gave a stability under setting [1] of 86.7%. As for `O=S1(=O)Nc2c(ccc3cccnc23)-c2ccccc21`, the stability stood at 91.3%. In addition, under setting [1], the stability was 94.9%. Compound `Cc1ccc(-n2c(N)c(C#N)c(-c3ccccc3)c(C#N)c2=O)cc1` showed a stability of 81.4%. The stability under setting [1] is 98.2%. `O=C(O)CCC(NS(=O)(=O)c1ccc(-c2ccccc2)cc1)C(=O)O` (stereo unspecified) displayed a stability of 100%. Also, the stability under setting [1] worked out at 100%. In turn, `Cc1ccc(NC(=O)CCC(=O)N/N=C/c2ccc([N+](=O)[O-])o2)cc1C` showed a stability of 51.3%. The same compound gave a stability under setting [1] of 65.6%. `O=C(O)c1ccc(N2C(=O)/C(=C/c3ccc(-c4ccc([N+](=O)[O-])cc4)o3)C=C2c2ccccc2)cc1` showed a stability of 14.5%. In addition, the stability under setting [1] was found to be 62.9%. For `O=C(O)c1ccccc1OCc1ccccc1Br` the same measures were 98.8% and 100%. For `N#C/C(=C\c1ccc([N+](=O)[O-])o1)c1nc2ccccc2[nH]1` the same measures were 52.4% and 100%. For `CCCc1nc2c(=O)n(C)c(=O)nc-2n(C)n1` the same measures were 100% and 100%. The compound `Cn1nnnc1Sc1ncnc2scc(-c3ccccc3)c12` yielded a stability of 85%. The same compound returned a stability under setting [1] of 95.1%.

`CS(=O)(=O)c1ccc(C(=O)OCC(=O)NC23CC4CC(CC(C4)C2)C3)cc1[N+](=O)[O-]` returned a stability of 12.8%. The compound also displayed a stability under setting [1] of 100%. For the compound `COc1nc(-c2ccccc2)nnc1-c1ccccc1`, the stability is 10.1%. The compound further had a stability under setting [1] of 98.9%. For `COc1ccc(S(=O)(=O)N2CCN(S(=O)(=O)c3ccc4c(c3)OCCO4)CC2)cc1` the same measures were 72.3% and 80.8%.
